Where two headings read alike, the source gives them in different places.
Columns and labels:
[1] = test system: test strain 923 pPvra-lux (USA300 MRSA); test: Primary screen, relative growth in presence of oxacillin; conditions: compound 10 μM with oxacillin 2 μg/mL, absorbance 24 h, <0.50 = dead cells = hit
[2] = test system: vraSR promoter (Pvra-lux reporter in strain 923); test: Primary screen, relative luminescence (vraSR expression)
[3] = primary screen, compound 10 μM with oxacillin 2 μg/mL, <0.50 = vraSR repressed = hit

| SMILES | RG avg (relative growth) [1] | RL avg (relative luminescence) [2, 3] | RL avg (relative luminescence) [2] |
| --- | --- | --- | --- |
| O=C(Nc1nnc(-c2ccc(Br)s2)o1)c1cc(Cl)ccc1Cl [F5093-46] | −0.01 | −0.07 |  |
| O=C(Nc1nnc(-c2ccc(Br)s2)o1)c1ccc(F)cc1 [F5093-12] | 0.01 | −0.01 |  |
| O=C(Nc1nnc(-c2ccc3c(c2)OCCO3)o1)c1ccc(C(=O)c2ccccc2)cc1 [F0608-19] | −0.02 | −0.12 |  |
| O=C(COc1ccc(Cl)cc1)Nc1nnc(-c2ccc(Br)cc2)o1 [F2518-483] | −0.02 | −0.04 |  |
| Cc1ccc(NCC(O)Cn2c3ccc(Br)cc3c3cc(Br)ccc32)cc1 (stereo not drawn) [F0191-4604] | −0.07 | −0.06 |  |
| COc1ccccc1-c1nnc(NC(=O)c2ccc(Cc3ccccc3)cc2)o1 [F1374-276] | 0.01 | 0.39 |  |
| Cc1ccc(-c2nnc(NC(=O)c3ccc(S(=O)(=O)N4CCCCC4)cc3)o2)cc1C [F2767-26] | 0.03 | −0.05 |  |
| COc1cccc2cc(-c3nnc(NC(=O)c4ccc5ncsc5c4)o3)oc12 [F2273-114] | 0.26 | 0.26 |  |
| O=C(Nc1nnc(Cc2ccccc2)o1)c1cc(Cl)sc1Cl [F2368-63] | −0.01 | −0.02 |  |
| O=C(Nc1nc(-c2ccccn2)cs1)c1cccc(Oc2ccccc2)c1 [F0447-264] | −0.03 | −0.05 |  |
| Cc1ccc(-c2nnc(NC(=O)c3ccc(C(=O)c4ccccc4)cc3)o2)c(C)c1 [F2518-168] | −0.03 | −0.07 |  |
| O=C(Nc1nnc(-c2ccc(Br)cc2)o1)c1sc2ccccc2c1Cl [F2518-484] | 0.02 | 0.02 |  |
| O=C(Nc1nnc(-c2ccccc2Cl)o1)c1cccc(Br)c1 [F1374-14] | 0.24 | 0.38 |  |
| C=CCN(CC=C)S(=O)(=O)c1ccc(C(=O)Nc2nnc(-c3ccc(OC)cc3)o2)cc1 [F0559-189] | −0.05 | −0.08 |  |
| COc1cccc(-c2nnc(NC(=O)c3ccc(Cl)cc3)o2)c1 [F1374-320] | 0.04 | 0.32 |  |
| O=C(Nc1nnc(-c2cc(Cl)ccc2Cl)o1)c1ccc2c(c1)CCCC2 [F2518-85] | 0.00 | −0.05 |  |
| COc1cc(OC)cc(-c2nnc(NC(=O)c3ccc(S(=O)(=O)N(C)c4ccccc4)cc3)o2)c1 [F0559-246] | −0.03 | −0.08 |  |
| O=C(Nc1nnc(-c2ccc3c(c2)CCCC3)o1)c1cccc(Cl)c1 [F0608-659] | −0.05 | −0.08 |  |
| O=C(Nc1nnc(-c2ccc(Br)cc2)o1)c1cccc(Br)c1 [F2518-447] | 0.02 | 0.00 |  |
| CCOc1cc(-c2nnc(NC(=O)c3ccc4ccccc4c3)o2)cc(OCC)c1OCC [F2517-182] | 0.46 | −0.04 |  |

| SMILES | RG avg (relative growth) [1] | RL avg (relative luminescence) [2, 3] | RL avg (relative luminescence) [2] |
| --- | --- | --- | --- |
| O=C(Nc1nnc(-c2ccc(Cl)s2)o1)c1ccc(-c2ccccc2)cc1 [F1374-1060] | 0.17 | 0.46 |  |
| O=C(Nc1nnc(-c2ccccn2)o1)c1cc(Cl)cc(Cl)c1 [F0608-928] | −0.01 | 0.07 |  |
| CC1CCCCN1S(=O)(=O)c1ccc(C(=O)Nc2nnc(-c3ccc4c(c3)OCCO4)o2)cc1 (stereo not drawn) [F0608-71] | −0.03 | 0.01 |  |
| O=C(Nc1nnc(-c2cc(Cl)sc2Cl)o1)c1ccc2ncsc2c1 [F1374-2676] | 0.01 | 0.34 |  |
| COc1cc(-c2nnc(NC(=O)c3ccc(S(=O)(=O)N4CCCC4)cc3)o2)cc(OC)c1OC [F0559-311] | −0.06 | 0.02 |  |
| O=C(Nc1nnc(-c2cccs2)o1)c1ccc(S(=O)(=O)N2CCCc3ccccc32)cc1 [F0559-350] | 0.43 | 0.11 |  |
| O=C(Nc1nnc(-c2ccccc2Cl)o1)c1ccc(Cl)s1 [F1374-36] | 0.04 | 0.35 |  |
| Cc1ccc(C)c(-c2nnc(NC(=O)c3cccc(F)c3)o2)c1 [F2518-301] | −0.01 | −0.10 |  |
| O=C(Nc1nnc(-c2ccc(F)cc2)o1)c1sc2ccccc2c1Cl [F1374-148] | 0.04 | 0.36 |  |
| COc1cc(-c2nnc(NC(=O)c3ccc(S(=O)(=O)N4CCCc5ccccc54)cc3)o2)cc(OC)c1OC [F0559-320] | 0.24 | −0.08 |  |
| O=C(Nc1nnc(-c2ccc(Br)cc2)o1)c1cc(Cl)ccc1Cl [F2518-481] | 0.00 | −0.05 |  |
| O=C(Nc1nnc(-c2ccc3c(c2)CCCC3)o1)c1nc2ccccc2s1 [F0608-570] | −0.05 | −0.07 |  |
| COc1ccc(-c2nnc(NC(=O)c3cc(Cl)sc3Cl)o2)cc1OC [F2767-204] | −0.02 | −0.09 |  |
| O=C(Nc1nnc(-c2ccccc2Cl)o1)c1sc2ccccc2c1Cl [F1374-43] | 0.04 | 0.35 |  |
| CCN(c1ccccc1)S(=O)(=O)c1ccc(C(=O)Nc2nnc(-c3ccccc3SC)o2)cc1 [F2645-115] | 0.13 | 0.45 |  |
| O=C(Nc1nnc(-c2ccc3c(c2)CCCC3)o1)c1ccc(Cl)s1 [F0608-662] | −0.07 | −0.10 |  |
| O=C(Nc1nnc(-c2cc(Cl)ccc2Cl)o1)c1cc(Cl)ccc1Cl [F2518-49] | −0.03 | −0.05 |  |
| O=C(COc1ccc(Cl)cc1Cl)Nc1nnc(-c2ccc(Cl)s2)o1 [F1374-1102] | 0.13 |  | 0.49 |
| O=C(Nc1nnc(-c2ccncc2)o1)c1ccc(Oc2ccccc2)cc1 [F0608-1161] | 0.00 | −0.07 |  |
| O=C(Nc1nnc(-c2cccnc2)o1)c1cc(Cl)cc(Cl)c1 [F0608-1062] | −0.04 | −0.10 |  |

| SMILES | RG avg (relative growth) [1] | RL avg (relative luminescence) [2, 3] | RL avg (relative luminescence) [2] |
| --- | --- | --- | --- |
| COc1ccc(-c2nnc(NC(=O)c3ccc(C(C)(C)C)cc3)o2)cc1 [F1374-495] | 0.04 | 0.37 |  |
| COc1ccc(-c2nnc(NC(=O)c3cc(Cl)sc3Cl)o2)c(OC)c1 [F1374-583] | 0.00 | 0.36 |  |
| COc1cc(-c2nnc(NC(=O)c3ccc(S(=O)(=O)N(Cc4ccccc4)C(C)C)cc3)o2)cc(OC)c1OC [F0559-328] | 0.15 | 0.01 |  |
| O=C(Nc1nnc(-c2ccc(Br)s2)o1)c1nc2ccccc2s1 [F5093-37] | 0.02 | −0.03 |  |
| COc1ccc(OCc2noc(CNC(=O)Nc3ccc(Cl)c(Cl)c3)n2)cc1 [F5882-3269] | −0.01 | −0.02 |  |
| CCOc1ccc(-c2nnc(NC(=O)c3c(-c4ccccc4Cl)noc3C)o2)cc1 [F2517-329] | −0.02 | −0.11 |  |
| CC(C)Cn1c(N)c(C(=O)NCc2cccs2)c2nc3ccccc3nc21 [F3225-3356] | 0.39 | 0.01 |  |
| COc1cccc(C(=O)Nc2nnc(-c3ccc(C)c(C)c3)o2)c1 [F2767-17] | 0.00 | −0.15 |  |
| COc1ccccc1-c1nnc(NC(=O)c2cc(-c3ccccc3)nc3ccccc23)o1 [F1374-254] | 0.06 | 0.36 |  |
| C=CCN(CC=C)S(=O)(=O)c1ccc(C(=O)Nc2nnc(-c3ccccc3OC)o2)cc1 [F0559-129] | −0.08 | −0.07 |  |
| O=C(Nc1nnc(-c2ccc3c(c2)OCCO3)o1)c1cc(-c2ccccc2)nc2ccccc12 [F0608-46] | −0.06 | −0.10 |  |
| COc1ccccc1-c1nnc(NC(=O)c2ccc(S(=O)(=O)N(Cc3ccccc3)C(C)C)cc2)o1 [F0559-148] | 0.02 | −0.04 |  |
| O=C(Nc1nnc(-c2ccc(F)cc2)o1)c1ccc2c(c1)CCCC2 [F1374-172] | 0.04 | 0.39 |  |
| O=C(Nc1nnc(-c2ccc(F)cc2)o1)c1ccc(Br)s1 [F1374-140] | 0.02 | 0.35 |  |
| O=C(Nc1nnc(-c2ccc3c(c2)CCCC3)o1)c1ccc(S(=O)(=O)N2CCOCC2)cc1 [F0608-560] | −0.07 | −0.07 |  |
| COc1cc(OC)cc(-c2nnc(NC(=O)c3ccc(S(=O)(=O)N(CC(C)C)CC(C)C)cc3)o2)c1 [F0559-264] | −0.04 | −0.10 |  |
| COc1ccccc1-c1nnc(NC(=O)c2cc(-c3cccs3)nc3ccccc23)o1 [F1374-255] | 0.00 | 0.36 |  |
| O=C(Nc1nnc(-c2ccccc2Cl)o1)c1cc(Cl)sc1Cl [F1374-58] | 0.03 | 0.33 |  |
| CCCCN(CC)S(=O)(=O)c1ccc(C(=O)Nc2nnc(-c3ccccc3Cl)o2)cc1 [F0559-36] | −0.08 | −0.16 |  |
| O=C(Nc1nnc(-c2ccc(Cl)cc2)o1)c1cccs1 [F1374-757] | 0.02 | 0.29 |  |

— patent US9675592B2, “Methods and compositions for bacteria infections” (priority 2013, dated 2017)
